ChEMBL document CHEMBL5518188, “Discovery of 4-amino-1,6-dihydro-7H-pyrrolo[2,3-d]pyridazin-7-one derivatives as potential receptor-interacting serine/threonine-protein kinase 1 (RIPK1) inhibitors” (Eur J Med Chem, 2024)
Activity calls are given as the source filed them. The calls are words filed in the database; no cut-off is given here.

Key:
[1] = Apparent volume of distribution in BALB/c mouse at 10 mg/kg, po; assay type: ADME, organism-based; settings: in vivo
[2] = target: T1, Mixed lineage kinase domain-like protein (Homo sapiens, UniProt Q8NB16); test: Binding affinity to MLKL (unknown origin) assessed as dissociation constant
T1 sequence (Q8NB16 whole entry): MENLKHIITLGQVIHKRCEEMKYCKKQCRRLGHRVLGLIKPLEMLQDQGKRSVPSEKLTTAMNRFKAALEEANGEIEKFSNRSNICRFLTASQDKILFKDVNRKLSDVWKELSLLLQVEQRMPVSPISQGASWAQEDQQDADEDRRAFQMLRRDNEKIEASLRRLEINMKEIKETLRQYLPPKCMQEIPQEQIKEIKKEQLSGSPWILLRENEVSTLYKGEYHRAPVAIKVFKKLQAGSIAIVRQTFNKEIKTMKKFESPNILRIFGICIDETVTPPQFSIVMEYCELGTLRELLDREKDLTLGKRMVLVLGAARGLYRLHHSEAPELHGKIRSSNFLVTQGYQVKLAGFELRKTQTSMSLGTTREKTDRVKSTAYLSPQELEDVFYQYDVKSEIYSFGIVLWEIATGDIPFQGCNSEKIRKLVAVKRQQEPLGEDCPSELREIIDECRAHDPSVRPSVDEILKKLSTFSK

[3] = Selectivity ratio of Kd for binding affinity to RIPK1 (unknown origin) assessed as dissociation constant to Kd for binding affinity to RIPK3 (unknown origin) assessed as dissociation constant
[4] = target: T2, Receptor-interacting serine/threonine-protein kinase 1 (Homo sapiens, UniProt Q13546); test: Binding affinity to RIPK1 (unknown origin) assessed as dissociation constant
T2 sequence (Q13546 whole entry): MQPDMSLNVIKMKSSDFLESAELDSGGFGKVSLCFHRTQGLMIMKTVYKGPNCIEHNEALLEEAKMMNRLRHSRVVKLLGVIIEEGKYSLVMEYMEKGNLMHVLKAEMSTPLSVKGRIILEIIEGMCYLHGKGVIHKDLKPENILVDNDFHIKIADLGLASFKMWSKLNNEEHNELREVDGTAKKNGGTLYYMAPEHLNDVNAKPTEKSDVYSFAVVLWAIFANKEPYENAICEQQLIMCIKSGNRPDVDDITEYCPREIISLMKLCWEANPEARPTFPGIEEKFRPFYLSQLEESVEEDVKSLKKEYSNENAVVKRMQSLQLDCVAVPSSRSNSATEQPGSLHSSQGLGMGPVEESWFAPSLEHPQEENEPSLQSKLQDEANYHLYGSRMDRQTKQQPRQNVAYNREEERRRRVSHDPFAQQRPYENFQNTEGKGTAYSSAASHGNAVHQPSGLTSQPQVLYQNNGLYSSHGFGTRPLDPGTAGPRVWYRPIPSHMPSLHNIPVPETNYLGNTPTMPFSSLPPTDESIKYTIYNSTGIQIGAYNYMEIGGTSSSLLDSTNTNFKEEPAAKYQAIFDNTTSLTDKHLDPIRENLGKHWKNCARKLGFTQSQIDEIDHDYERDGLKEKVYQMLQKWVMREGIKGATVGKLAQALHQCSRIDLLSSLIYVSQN

U-937 = test: Anti-necroptosis activity against TSZ-induced human U-937 cells; assay type: functional, cell-based
[5] = Half life in BALB/c mouse at 10 mg/kg, po; assay type: ADME, organism-based; settings: BALB/c, in vivo
[6] = target: T3, Receptor-interacting serine/threonine-protein kinase 1 (Homo sapiens) (UniProt Q13546); settings: HT-29, dose 3.0 nM, time 6.0 hrs
T3 sequence (whole entry): T2 sequence (Q13546 whole entry)

[7] = Cmax in BALB/c mouse at 10 mg/kg, po; assay type: ADME, organism-based; settings: in vivo
[8] = target: BDNF/NT-3 growth factors receptor (Homo sapiens) (UniProt Q16620); test: Inhibition of TRKB (unknown origin)
[9] = target: T4, Receptor-interacting serine/threonine-protein kinase 3 (Homo sapiens, UniProt Q9Y572); settings: HT-29, dose 3.0 nM, time 6.0 hrs
Target sequence in this assay (Q9Y572 whole entry, looked up): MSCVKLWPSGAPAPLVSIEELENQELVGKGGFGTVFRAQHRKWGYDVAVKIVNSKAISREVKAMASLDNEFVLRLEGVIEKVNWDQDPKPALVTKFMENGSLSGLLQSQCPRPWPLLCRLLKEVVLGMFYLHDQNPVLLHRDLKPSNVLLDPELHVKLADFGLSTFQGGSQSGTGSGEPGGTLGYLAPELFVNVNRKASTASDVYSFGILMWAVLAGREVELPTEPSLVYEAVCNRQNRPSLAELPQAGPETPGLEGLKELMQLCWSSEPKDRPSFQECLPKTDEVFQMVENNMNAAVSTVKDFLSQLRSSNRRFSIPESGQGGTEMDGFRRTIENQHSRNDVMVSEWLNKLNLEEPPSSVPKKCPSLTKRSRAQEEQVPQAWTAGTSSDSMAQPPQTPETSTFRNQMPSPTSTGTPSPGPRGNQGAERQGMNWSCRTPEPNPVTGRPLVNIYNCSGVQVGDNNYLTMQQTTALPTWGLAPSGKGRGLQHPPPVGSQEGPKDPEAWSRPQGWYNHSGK

[10] = target: Eukaryotic translation initiation factor 2-alpha kinase 1 (Homo sapiens) (UniProt Q9BQI3); test: Inhibition of HRI (unknown origin)
[11] = AUC (0 to t) in BALB/c mouse at 10 mg/kg, iv; assay type: ADME, organism-based; settings: BALB/c, in vivo
[12] = target: T2, Receptor-interacting serine/threonine-protein kinase 1; test: Inhibition of RIPK1 (unknown origin) in presence of ATP by kinaseProfiler assay
[13] = target: T3, Receptor-interacting serine/threonine-protein kinase 1 (Homo sapiens); settings: HT-29, dose 300.0 nM, time <= 6.0 hrs, TDE = time-dependent effect
Description: Inhibition of RIPK1 phosphorylation in TSZ-induced human HT-29 cells at 300 nM by Western blot analysis

[14] = Metabolic stability in cryopreserved human liver microsome assessed as half life; assay type: ADME; settings: cryopreserved liver microsomes
[15] = target: Vascular endothelial growth factor receptor 2 (Homo sapiens) (UniProt P35968); test: Inhibition of KDR (unknown origin)
[16] = target: T4, Receptor-interacting serine/threonine-protein kinase 3; test: Binding affinity to RIPK3 (unknown origin) assessed as dissociation constant
Target sequence in this assay (Q9Y572 whole entry): as the sequence (Q9Y572 whole entry, looked up) above

[17] = Clearance in BALB/c mouse at 10 mg/kg, iv; assay type: ADME, organism-based; settings: in vivo

Sequence of Eukaryotic translation initiation factor 2-alpha kinase 1 (Homo sapiens) (Q9BQI3 whole entry): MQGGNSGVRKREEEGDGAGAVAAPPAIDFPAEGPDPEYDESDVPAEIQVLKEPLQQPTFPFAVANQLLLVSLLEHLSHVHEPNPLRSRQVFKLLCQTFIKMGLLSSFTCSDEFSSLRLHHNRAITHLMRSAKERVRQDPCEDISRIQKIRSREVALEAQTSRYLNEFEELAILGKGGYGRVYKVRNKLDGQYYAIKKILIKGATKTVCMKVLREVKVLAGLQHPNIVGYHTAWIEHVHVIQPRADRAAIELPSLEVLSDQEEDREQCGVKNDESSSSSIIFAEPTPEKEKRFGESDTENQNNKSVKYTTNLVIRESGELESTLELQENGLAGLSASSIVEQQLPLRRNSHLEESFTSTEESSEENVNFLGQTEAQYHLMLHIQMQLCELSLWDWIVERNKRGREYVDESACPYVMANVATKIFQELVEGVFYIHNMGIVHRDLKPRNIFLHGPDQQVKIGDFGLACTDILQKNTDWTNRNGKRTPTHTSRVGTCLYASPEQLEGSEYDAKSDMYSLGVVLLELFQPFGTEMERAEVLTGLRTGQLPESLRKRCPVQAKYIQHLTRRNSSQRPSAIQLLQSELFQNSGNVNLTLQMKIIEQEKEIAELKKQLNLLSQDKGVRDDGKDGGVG
Sequence of Vascular endothelial growth factor receptor 2 (Homo sapiens) (P35968 whole entry): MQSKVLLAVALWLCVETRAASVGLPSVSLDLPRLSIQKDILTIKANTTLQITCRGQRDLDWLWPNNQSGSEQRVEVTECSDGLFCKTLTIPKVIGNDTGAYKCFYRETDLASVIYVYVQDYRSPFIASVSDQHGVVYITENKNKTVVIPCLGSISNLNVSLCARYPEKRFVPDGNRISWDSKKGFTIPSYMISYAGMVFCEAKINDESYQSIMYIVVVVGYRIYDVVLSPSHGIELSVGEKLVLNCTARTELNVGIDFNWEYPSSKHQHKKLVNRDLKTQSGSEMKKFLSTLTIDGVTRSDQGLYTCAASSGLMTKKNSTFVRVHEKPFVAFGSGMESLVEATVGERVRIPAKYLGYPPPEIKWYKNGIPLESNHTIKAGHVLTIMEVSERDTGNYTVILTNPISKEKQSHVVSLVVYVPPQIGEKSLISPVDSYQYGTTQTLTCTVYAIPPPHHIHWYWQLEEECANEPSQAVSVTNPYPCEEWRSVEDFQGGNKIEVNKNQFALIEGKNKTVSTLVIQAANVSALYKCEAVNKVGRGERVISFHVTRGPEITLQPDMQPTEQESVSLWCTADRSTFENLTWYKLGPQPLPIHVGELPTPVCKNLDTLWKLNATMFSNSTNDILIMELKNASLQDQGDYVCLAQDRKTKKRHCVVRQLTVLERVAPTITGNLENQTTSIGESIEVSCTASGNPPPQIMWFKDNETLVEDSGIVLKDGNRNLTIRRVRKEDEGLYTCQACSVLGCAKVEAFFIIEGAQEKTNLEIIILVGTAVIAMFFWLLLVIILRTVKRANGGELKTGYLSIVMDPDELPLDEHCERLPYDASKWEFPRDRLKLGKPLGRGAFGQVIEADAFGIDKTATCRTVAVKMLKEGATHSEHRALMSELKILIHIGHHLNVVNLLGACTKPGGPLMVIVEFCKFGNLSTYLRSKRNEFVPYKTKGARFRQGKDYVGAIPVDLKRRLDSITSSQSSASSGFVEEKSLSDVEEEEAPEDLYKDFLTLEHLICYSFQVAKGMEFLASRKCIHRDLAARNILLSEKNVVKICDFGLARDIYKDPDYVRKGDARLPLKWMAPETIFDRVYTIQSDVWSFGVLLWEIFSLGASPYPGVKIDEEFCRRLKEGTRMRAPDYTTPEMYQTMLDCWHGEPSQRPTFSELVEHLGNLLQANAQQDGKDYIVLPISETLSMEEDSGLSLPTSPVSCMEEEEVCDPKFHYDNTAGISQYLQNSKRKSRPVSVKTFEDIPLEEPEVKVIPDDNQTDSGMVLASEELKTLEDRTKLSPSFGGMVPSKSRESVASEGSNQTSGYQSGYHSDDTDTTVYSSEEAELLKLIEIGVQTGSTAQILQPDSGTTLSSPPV
Sequence of BDNF/NT-3 growth factors receptor (Homo sapiens) (Q16620 32-822 limits assumed): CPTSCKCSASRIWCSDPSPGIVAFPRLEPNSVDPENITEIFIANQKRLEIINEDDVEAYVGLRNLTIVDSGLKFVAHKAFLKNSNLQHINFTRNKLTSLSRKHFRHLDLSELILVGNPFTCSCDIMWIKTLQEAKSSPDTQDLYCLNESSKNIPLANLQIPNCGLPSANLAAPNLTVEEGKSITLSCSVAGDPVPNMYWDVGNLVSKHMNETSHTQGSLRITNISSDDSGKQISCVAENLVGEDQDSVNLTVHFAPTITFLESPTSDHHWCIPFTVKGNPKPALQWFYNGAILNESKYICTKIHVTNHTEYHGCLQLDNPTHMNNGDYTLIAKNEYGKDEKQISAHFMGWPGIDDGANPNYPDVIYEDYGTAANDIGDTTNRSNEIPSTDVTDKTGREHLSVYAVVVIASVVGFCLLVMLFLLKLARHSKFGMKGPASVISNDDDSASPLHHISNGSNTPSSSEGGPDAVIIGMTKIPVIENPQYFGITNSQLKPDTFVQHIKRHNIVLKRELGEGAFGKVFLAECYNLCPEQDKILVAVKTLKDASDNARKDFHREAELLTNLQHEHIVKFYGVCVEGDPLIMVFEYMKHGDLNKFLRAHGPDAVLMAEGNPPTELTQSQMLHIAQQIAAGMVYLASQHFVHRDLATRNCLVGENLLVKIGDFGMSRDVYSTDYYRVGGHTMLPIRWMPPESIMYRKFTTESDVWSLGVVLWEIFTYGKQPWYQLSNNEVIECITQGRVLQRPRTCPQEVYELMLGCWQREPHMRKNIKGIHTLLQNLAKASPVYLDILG

Vz [1]: 1.24 L/kg | Kd [2]: > 30000 nM | Selectivity ratio [3]: 486 | Kd [4]: 3.5 nM | half-life [5]: 1.04 h | inhibition [6]: Dose-Dependent Effect | Cmax [7]: 2700 ng/mL | inhibition [8]: Active | inhibition [9]: Dose-Dependent Effect | inhibition [10]: Active | AUC(0-t) [11]: 9640 ng·h/mL | IC50 [12]: 59.8 nM | inhibition [13]: Tde | half-life [14]: 1.26 h | inhibition [15]: Active | Kd [16]: 1700 nM | clearance [17]: 17.3 mL/min/kg
SMILES: CC1(Cn2cc(-c3ccc4c(c3)CCN4C(=O)Cc3cccc(OC(F)(F)F)c3)c3c(N)n[nH]c(=O)c32)COC1
EC50 (U-937): 3.09 nM
